Experiments:
BIR2 domain of XIAP = molecular target: T1, BIR2 domain of XIAP (Homo sapiens, UniProt P98170, C202A/C213G); assay: TR-FRET assay for BIR2 (inhibition of binding of XIAP BIR2 domain to SMAC-derived Peptide A); details: 6x Histidine-tagged BIR2 domain (amino acids 124-240 of XIAP) 10 nM, Peptide A 20 nM
T1 construct: 6× Histidine-tagged BIR2 domain, corresponding to amino acids 124-240 of XIAP
Experimental: (§1) TR-FRET Assay for BIR2 and BIR3
(§2) The ability of a test compound to inhibit the binding of BIR2 and/or BIR3 domains of the XIAP protein to Peptide A (a SMAC-derived peptide described below) evidences that the test compound acts as a SMAC-mimetic resulting in reactivation of a cell's apoptotic pathway.
(§3) The peptides were labeled with the fluorescent tags FITC or TAMRA and Kd values were determined by fluorescence polarization assay. […] The peptide sequence was derivatized with biotin to provide […]-(ε-biotin)-OH 1:2 TFA as the substrate for the TR-FRET assay.
The XIAP protein sequence was obtained from the SWISS-PROT protein sequence database and the BIR2 and BIR3 domains were derived from that. The sequence of the BIR2 domain used for the TR-FRET assay is […].
Time-resolved fluorescence resonance energy transfer (TR-FRET) signals were measured 1 hour later at room temperature. Test compound potency was assessed at 10 serially diluted concentrations. Percentage of inhibition at each concentration was determined to generate an IC50 value for each test compound.

BIR3 domain of XIAP = molecular target: T2, BIR3 domain of XIAP (Homo sapiens, UniProt P98170); assay: TR-FRET assay for BIR3 (inhibition of binding of XIAP BIR3 domain to SMAC-derived Peptide A); details: 6x Histidine-tagged BIR3 domain (amino acids 241-356 of XIAP) 10 nM, Peptide A 20 nM
T2 construct: BIR3 domain, corresponding to amino acids 241-356 of XIAP
T2 sequence (P98170 with tags, fused parts or gaps): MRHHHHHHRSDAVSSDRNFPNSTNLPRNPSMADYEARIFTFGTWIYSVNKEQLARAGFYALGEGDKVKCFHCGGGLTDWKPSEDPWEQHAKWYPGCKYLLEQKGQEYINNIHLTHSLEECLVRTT
Experimental: as §1, §2, §3
The sequence of the BIR3 domain used for the TR-FRET assay is […]
Ten nanomolar of 6× Histidine-tagged BIR2 domain, corresponding to amino acids 124-240 of XIAP, or BIR3 domain, corresponding to amino acids 241-356 of XIAP, was mixed with 20 nM of the peptide […]-(z-biotin)-OH 1:2 TFA, in the presence of 50 mM Tris-Cl, pH 7.5, 100 mM NaCl, 1 mM dithiothreitol (DTT) and 0.1 mg/mL bovine serum albumin (BSA). Following a […] incubation at 37° C., Europium-Streptavidin and Allophycocyanin conjugated anti-Histidine antibody were added to a final concentration of 1.5 nM and 15 nM, respectively. Time-resolved fluorescence resonance energy transfer (TR-FRET) signals were measured 1 hour later at room temperature. Test compound potency was assessed at 10 serially diluted concentrations. Percentage of inhibition at each concentration was determined to generate an IC50 value for each test compound.

T1 sequence (P98170 with tags, fused parts or gaps C202A/C213G): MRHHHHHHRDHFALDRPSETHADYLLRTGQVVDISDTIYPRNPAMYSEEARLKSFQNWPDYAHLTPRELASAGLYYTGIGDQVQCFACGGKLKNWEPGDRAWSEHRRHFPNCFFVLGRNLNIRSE

CN[C@@H](C)C(=O)N[C@H](C(=O)N1c2ncccc2C[C@H]1C(=O)Nc1ccc(C(F)(F)F)cc1F)C(C)C [Example 59, (S)-1-[(S)-3-Methyl-2-((S)-2-methylamino-propionylamino)-butyryl]-2,3-dihydro-1H-pyrrolo[2,3-b]pyridine-2-carboxylic acid (2-fluoro-4-trifluoromethyl-phenyl)-amide]
IC50 (BIR2 domain of XIAP): 53.6 nM
IC50 (BIR3 domain of XIAP): > 54800 nM

CC[C@H](NC)C(=O)N[C@H](C(=O)N1CC(C)(C)c2cccnc21)C(C)C [Example 3, (S)—N—[(S)-1-(3,3-Dimethyl-2,3-dihydro-pyrrolo[2,3-b]pyridine-1-carbonyl)-2-methyl-propyl]-2-methylamino-butyramide]
IC50 (BIR2 domain of XIAP): 4030 nM
IC50 (BIR3 domain of XIAP): > 54800 nM

CN[C@@H](C)C(=O)N[C@H](C(=O)N1c2ncccc2C[C@H]1C(=O)Nc1ccc(S(C)(=O)=O)cc1F)C(C)C [Example 50, (S)-1-[(S)-3-Methyl-2-((S)-2-methylamino-propionylamino)-butyryl]-2,3-dihydro-1H-pyrrolo[2,3-b]pyridine-2-carboxylic acid (2-fluoro-4-methanesulfonyl-phenyl)-amide]
IC50 (BIR2 domain of XIAP): 89.3 nM
IC50 (BIR3 domain of XIAP): > 54800 nM

CN[C@@H](C)C(=O)N[C@H](C(=O)N1c2ncccc2C[C@H]1C(=O)Nc1cccc(C)c1C)C(C)C [Example 43, (S)-1-[(S)-3-Methyl-2-((S)-2-methylamino-propionylamino)-butyryl]-2,3-dihydro-1H-pyrrolo[2,3-b]pyridine-2-carboxylic acid (2,3-dimethyl-phenyl)-amide]
IC50 (BIR2 domain of XIAP): 71.1 nM
IC50 (BIR3 domain of XIAP): > 54800 nM

CC[C@H](NC)C(=O)N[C@H](C(=O)N1c2ncccc2C[C@H]1C(=O)Nc1ccccc1)C1CCCCC1 [Example 82, 1-[(S)-2-Cyclohexyl-2-((S)-2-methylamino-butyrylamino)-acetyl]-2,3-dihydro-1H-pyrrolo[2,3-b]pyridine-2-carboxylic acid phenylamide]
IC50 (BIR2 domain of XIAP): 105 nM
IC50 (BIR3 domain of XIAP): > 54800 nM

CN[C@@H](C)C(=O)N[C@H](C(=O)N1c2ncccc2C[C@@H]1C(=O)NCc1ccccc1)C(C)C [Example 15, (R)-1-[(S)-3-Methyl-2-((S)-2-methylamino-propionylamino)-butyryl]-2,3-dihydro-1H-pyrrolo[2,3-b]pyridine-2-carboxylic acid benzylamide]
IC50 (BIR2 domain of XIAP): 1800 nM
IC50 (BIR3 domain of XIAP): 45900 nM

CN[C@@H](C)C(=O)N[C@H](C(=O)N1c2ncccc2C[C@H]1C(=O)Nc1c(F)cccc1Cl)C(C)C [Example 70, (S)-1-[(S)-3-Methyl-2-((S)-2-methylamino-propionylamino)-butyryl]-2,3-dihydro-1H-pyrrolo[2,3-b]pyridine-2-carboxylic acid (2-chloro-6-fluoro-phenyl)-amide]
IC50 (BIR2 domain of XIAP): 21.5 nM
IC50 (BIR3 domain of XIAP): > 54800 nM

CN[C@@H](C)C(=O)N[C@H](C(=O)N1c2ncccc2C[C@H]1C(=O)Nc1ccccc1C#N)C(C)C [Example 48, (S)-1-[(S)-3-Methyl-2-((S)-2-methylamino-propionylamino)-butyryl]-2,3-dihydro-1H-pyrrolo[2,3-b]pyridine-2-carboxylic acid (2-cyano-phenyl)-amide]
IC50 (BIR2 domain of XIAP): 54.9 nM
IC50 (BIR3 domain of XIAP): > 54800 nM

CCN[C@@H](C)C(=O)N[C@H](C(=O)N1c2ncccc2C[C@H]1C(=O)Nc1c(F)cccc1F)C(C)C [Example 77, (S)-1-[(S)-2-((S)-2-Ethylamino-propionylamino)-3-methyl-butyryl]-2,3-dihydro-1H-pyrrolo[2,3-b]pyridine-2-carboxylic acid (2,6-difluoro-phenyl)-amide]
IC50 (BIR2 domain of XIAP): 46.2 nM
IC50 (BIR3 domain of XIAP): > 54800 nM

CN[C@@H](C)C(=O)N[C@H](C(=O)N1c2ncccc2C[C@@H]1C(=O)Nc1ccccc1)C1CCCCC1 [Example 79, (R)-1-[(S)-2-Cyclohexyl-2-((S)-2-methylamino-propionylamino)-acetyl]-2,3-dihydro-1H-pyrrolo[2,3-b]pyridine-2-carboxylic acid phenylamide]
IC50 (BIR2 domain of XIAP): > 54800 nM
IC50 (BIR3 domain of XIAP): > 54800 nM

CN[C@@H](C)C(=O)N[C@H](C(=O)N1c2ncccc2C[C@@H]1C(=O)Nc1c(F)cccc1F)C1CCOCC1 [Example 95, (R)-1-[(S)-2-((S)-2-Methylamino-propionylamino)-2-(tetrahydro-pyran-4-yl)-acetyl]-2,3-dihydro-1H-pyrrolo[2,3-b]pyridine-2-carboxylic acid (2,6-difluoro-phenyl)-amide]
IC50 (BIR2 domain of XIAP): 607 nM
IC50 (BIR3 domain of XIAP): > 54800 nM

CN[C@@H](C)C(=O)N[C@H](C(=O)N1c2ncccc2C[C@H]1C(=O)Nc1ncc(C)s1)C(C)C [Example 67, (S)-1-[(S)-3-Methyl-2-((S)-2-methylamino-propionylamino)-butyryl]-2,3-dihydro-1H-pyrrolo[2,3-b]pyridine-2-carboxylic acid (5-methyl-thiazol-2-yl)-amide]
IC50 (BIR2 domain of XIAP): 92.6 nM
IC50 (BIR3 domain of XIAP): > 54800 nM

[2H]C([2H])([2H])N[C@@H](CC)C(=O)N[C@H](C(=O)N1c2ncccc2C[C@H]1C(=O)Nc1ccccc1)C1CCCCC1 [Example 83, 1-[(S)-2-Cyclohexyl-2-((S)-2-(d3-methyl)amino-butyrylamino)-acetyl]-2,3-dihydro-1H-pyrrolo[2,3-b]pyridine-2-carboxylic acid phenylamide]
IC50 (BIR2 domain of XIAP): 52.8 nM
IC50 (BIR3 domain of XIAP): > 54800 nM

CCNC(=O)C1Cc2cccnc2N1C(=O)[C@@H](NC(=O)[C@H](CC)NC)C1CCCCC1 (stereo partly drawn) [Example 5, (R,S)-1-[(S)-2-Cyclohexyl-2-((S)-2-methylamino-butyrylamino)-acetyl]-2,3-dihydro-1H-pyrrolo[2,3-b]pyridine-2-carboxylic acid ethylamide]
IC50 (BIR2 domain of XIAP): 1860 nM
IC50 (BIR3 domain of XIAP): > 54800 nM

CN[C@@H](C)C(=O)N[C@H](C(=O)N1c2ncccc2C[C@H]1C(=O)Nc1cnccc1C)C(C)C [Example 38, (S)-1-[(S)-3-Methyl-2-((S)-2-methylamino-propionylamino)-butyryl]-2,3-dihydro-1H-pyrrolo[2,3-b]pyridine-2-carboxylic acid (4-methyl-pyridin-3-yl)-amide]
IC50 (BIR2 domain of XIAP): 237 nM
IC50 (BIR3 domain of XIAP): > 54800 nM

CN[C@@H](C)C(=O)N[C@H](C(=O)N1c2ncccc2CC1C(N)=O)C(C)C (stereo partly drawn) [Example 8, (R,S)-1-[(S)-3-Methyl-2-((S)-2-methylamino-propionylamino)-butyryl]-2,3-dihydro-1H-pyrrolo[2,3-b]pyridine-2-carboxylic acid amide]
IC50 (BIR2 domain of XIAP): 501 nM
IC50 (BIR3 domain of XIAP): > 54800 nM

CN[C@@H](C)C(=O)N[C@H](C(=O)N1c2ncccc2C[C@H]1C(=O)Nc1ccncc1F)C(C)C [Example 69, (S)-1-[(S)-3-Methyl-2-((S)-2-methylamino-propionylamino)-butyryl]-2,3-dihydro-1H-pyrrolo[2,3-b]pyridine-2-carboxylic acid (3-fluoro-pyridin-4-yl)-amide]
IC50 (BIR2 domain of XIAP): 105 nM
IC50 (BIR3 domain of XIAP): > 54800 nM

CN[C@@H](C)C(=O)N[C@H](C(=O)N1c2ncccc2C[C@H]1C(=O)NCCS(=O)(=O)N(C)C)C(C)C [Example 53, (S)-1-[(S)-3-Methyl-2-((S)-2-methylamino-propionylamino)-butyryl]-2,3-dihydro-1H-pyrrolo[2,3-b]pyridine-2-carboxylic acid (2-dimethylsulfamoyl-ethyl)-amide]
IC50 (BIR2 domain of XIAP): 740 nM
IC50 (BIR3 domain of XIAP): > 54800 nM

CN[C@@H](C)C(=O)N[C@H](C(=O)N1c2ncccc2C[C@H]1C(=O)Nc1ccc(Br)cc1F)C(C)C [Example 63, (S)-1-[(S)-3-Methyl-2-((S)-2-methylamino-propionylamino)-butyryl]-2,3-dihydro-1H-pyrrolo[2,3-b]pyridine-2-carboxylic acid (4-bromo-2-fluoro-phenyl)-amide]
IC50 (BIR2 domain of XIAP): 32 nM
IC50 (BIR3 domain of XIAP): > 54800 nM

CN[C@@H](C)C(=O)N[C@H](C(=O)N1c2ncccc2C[C@H]1C(=O)Nc1cc(F)ccc1F)C(C)C [Example 61, (S)-1-[(S)-3-Methyl-2-((S)-2-methylamino-propionylamino)-butyryl]-2,3-dihydro-1H-pyrrolo[2,3-b]pyridine-2-carboxylic acid (2,5-difluoro-phenyl)-amide]
IC50 (BIR2 domain of XIAP): 34.8 nM
IC50 (BIR3 domain of XIAP): > 54800 nM

CN[C@@H](C)C(=O)N[C@H](C(=O)N1c2ncccc2C[C@H]1c1nc2ccccc2[nH]1)C(C)C [Example 34, (S)—N—{(S)-1-[(S)-2-(1H-Benzoimidazol-2-yl)-2,3-dihydro-pyrrolo[2,3-b]pyridine-1-carbonyl]-2-methyl-propyl}-2-methylamino-propionamide]
IC50 (BIR2 domain of XIAP): 137 nM
IC50 (BIR3 domain of XIAP): > 54800 nM
